Laboratory results reported in ChEMBL document CHEMBL1201862, “PubChem BioAssay data set” (2004).
Activity calls are given as the source filed them.

Experiments:
[1] = HGIII-sPLA2 enzyme inhibition potency – biochemical, QFRET, IC50, dose response (AID 743457);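 further: green fluorescence rise as the enzyme cleaves BODIPY PC-A2 in liposomes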
[2] = target: ADP-ribosylation factor GTPase-activating protein 1 (Rattus norvegicus, UniProt Q62848); assay: Fluorescence polarization-based biochemical high throughput dose response screening assay to identify inhibitors of ADP-ribosylation factor GTPase activating protein 1 (ARFGAP1).; format: functional
A549 = assay: viability loss in A549 cells – cell-based, plate reader, cherry-pick samples, cytotoxicity control, dose response (AID 687028); format: functional; settings: Homo sapiens
BHK-21 = assay: viability loss in BHK-21 cells – cell-based, plate reader, cherry-pick samples, cytotoxicity control, dose response (AID 687030); format: functional; settings: Mesocricetus auratus
[3] = Counterscreen for activators of the function of SWI/SNF related, matrix associated, actin dependent regulator of chromatin, subfamily a, member 2 (SMARCA2, BRM): Luminescence-based cell-based high throughput dose response assay to identify non-selective compounds using the VP16 reporter assay.; format: functional
[4] = target: SWI/SNF-related matrix-associated actin-dependent regulator of chromatin subfamily A member 2 (Homo sapiens, UniProt P51531); assay: Luminescence-based cell-based high throughput dose response assay to identify activators of the function of SWI/SNF related, matrix associated, actin dependent regulator of chromatin, subfamily a, member 2 (SMARCA2, BRM).; format: functional
Steroidogenic factor 1 = Steroidogenic factor 1 (Homo sapiens, UniProt Q13285); assay: Counterscreen for inverse agonists of the liver receptor homolog-1 (LRH-1; NR5A2): Luminescence-based cell-based high throughput dose response assay to identify inverse agonists of the Steroidogenic Factor 1 Nuclear Receptor (SF1; NR5A1).; format: functional
[5] = nonselective StAR promoter luciferase inhibitors – cell-based, luminescence, luciferase reporter, counter-screen for LRH-1 inverse agonist project, dose response (AID 651969); format: functional
[6] = target: Nuclear receptor subfamily 5 group A member 2 (Homo sapiens, UniProt O00482); format: functional, cell-based;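 further: HEK293T cells transfected with LRH-1 and a StAR promoter luciferase reporter; potency for inhibitors that lower LRH-1 driven reporter light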
BJ [7] = assay: BJ-TERT fibroblast viability loss – cell-based, RAS-independent, luminescence, dose response (AID 1933); format: functional; settings: Homo sapiens
[8] = DRD fibroblast viability loss – cell-based, non-viral oncogenic, luminescence, dose response (AID 1934); format: functional; settings: Homo sapiens
BJ [9] = assay: cells; format: functional, cell-based; settings: Homo sapiens
[10] = HEK-293T viability loss after treatment – luminescence, T-cell screen hits, cytotoxicity control for TCR NF-kB inhibitor project, dose response (AID 489026); format: functional, cell-based;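 further: cells exposed to compound about 14 hours before the viability readout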
BJ [11] = assay: BJ-TERT-LT-ST fibroblast viability loss – cell-based, RAS-independent, luminescence, dose response (AID 1935); format: functional; settings: Homo sapiens;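 further: BJ fibroblasts immortalized with TERT plus LT and ST oncogenes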
[12] = target: Photoreceptor-specific nuclear receptor (Homo sapiens, UniProt Q9Y5X4); format: functional, cell-based;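 further: CHO-S cells with Gal4-NCOR and VP16-NR2E3 two-hybrid luciferase reporter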
BJ [13] = assay: growth inhibition of engineered Ras-driven BJ cells – cell-based, alamar blue fluorescence, cherrypicked samples, dose response (AID 2631); format: functional; settings: Homo sapiens;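 further: confirmatory dose-response assay in RAS-dependent BJ fibroblasts engineered with TERT, LT and ST, with cytotoxicity read by fluorescence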
[14] = target: T1, Matrix metalloproteinase-14 (Homo sapiens, UniProt P50281); assay: SAR confirmation of uHTS hits for a small molecule inhibitors of MT1-MMP activation in a fluorescence assay.; format: functional
[15] = target: T1, Matrix metalloproteinase-14; assay: Dose Response confirmation of uHTS hits for a small molecule inhibitors of MT1-MMP activation in a fluorescence assay set 1.; format: functional
[16] = target: T2, ATP-dependent translocase ABCB1 (Homo sapiens, UniProt P08183); assay: P-gp JC-1 efflux blockade concentration-response – Jurkat-DNR cells, flow cytometry, set 2, dose response (AID 504569); format: functional; settings: read-out: EC50_MICROM_;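 further: potency of pump inhibitors that raise cellular JC-1 green fluorescence up to the nicardipine level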
[17] = target: T2, ATP-dependent translocase ABCB1; assay: inhibition of BCRP-mediated JC-1 efflux – Ig-MXP3 cells, flow cytometry, set 2, dose response (AID 504566); format: functional; settings: read-out: EC50_MICROM_;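 further: flow cytometry median green fluorescence of retained JC-1 dye; potency of efflux pump inhibition measured as rising substrate retention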
[18] = activation of miR-122 Renilla sensor silencing – cell-based, Huh7 psiCHECK-miR122, Renilla luciferase, cherry-picked, dose response (AID 651956); format: functional;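 further: huh7 hepatoma cells stably carrying a psiCHECK-2 miR-122 sensor plasmid; renilla luciferase signal reporting endogenous miR-122 activity after 48 h compound exposure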
cells [19] = format: functional, cell-based
cells [20] = format: functional, cell-based; remark: listed apart in the source
[21] = IGROV1 cell killing – plate reader, dry powder samples, PAX8 inhibitor project, dose response (AID 743043); format: functional, cell-based; settings: IGROV-1
[22] = OVCAR-3 cell viability loss – plate reader, dry powder samples, PAX8 inhibitor project, dose response (AID 743044); format: functional, cell-based
Paired box protein Pax-8 = Paired box protein Pax-8 (Homo sapiens, UniProt Q06710); assay: PAX8 transcriptional activity inhibition in RMG-I – RMG-I cells, luciferase, cherry-pick, dose response (AID 687027); format: functional, cell-based;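 further: luciferase reporter driven by Pax8 target thyroperoxidase promoter measured by SteadyGlo luminescence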
[23] = A2780 cell killing – plate reader, dry powder samples, cytotoxicity control, dose response (AID 743046); format: functional, cell-based
[24] = OVCAR8 cell viability loss – plate reader, dry powder samples, PAX8 project, dose response (AID 743197); format: functional, cell-based; settings: OVCAR-8
[25] = cytotoxicity in HEK293 background cells – cell-based, dry powder, set 2, counter-screen for EBV LMP1 inhibitor project, dose response (AID 624374); format: functional
Protein Wnt-3a = Protein Wnt-3a (Mus musculus, UniProt P27467); assay: SAR analysis of small molecule antagonists of Gli-SUFU in a Wnt3a luminescent reporter assay.; format: functional
[26] = inhibition of bursicon-driven LGR2 cAMP signaling – cell-based, HEK293, CRE-luciferase reporter, cherry pick, dose response (AID 743342); format: functional
[27] = A549 cell cytotoxicity, dose response, cytotoxicity control, plate reader, cherry-pick, antagonist series (AID 743412); format: functional, cell-based
[28] = potency of ADAM10 substrate cleavage blockers – biochemical, QFRET, dose response (AID 743254);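 further: ADAM10 enzyme with the DM2 quenched FRET peptide as substrate; EDANS fluorescence gain as the protease cuts the substrate; inhibitor potency against ADAM10 proteolytic activity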
[29] = target: Disintegrin and metalloproteinase domain-containing protein 17 (Homo sapiens, UniProt P78536); assay: inhibition of ADAM17 substrate cleavage – biochemical, quenched FRET substrate, counter-screen for ADAM10 exosite inhibitor project, dose response (AID 743253)
[30] = target: T3, Tyrosine-protein phosphatase non-receptor type 22 (Homo sapiens, UniProt Q9Y2R2); assay: PTPN22 enzyme inhibitors – biochemical, fluorescence, LYP catalytic domain, selectivity assay for LMPTP inhibitor project, dose response (AID 652006); format: functional; settings: read-out: IC50_Mean
T3 sequence (Q9Y2R2 whole entry): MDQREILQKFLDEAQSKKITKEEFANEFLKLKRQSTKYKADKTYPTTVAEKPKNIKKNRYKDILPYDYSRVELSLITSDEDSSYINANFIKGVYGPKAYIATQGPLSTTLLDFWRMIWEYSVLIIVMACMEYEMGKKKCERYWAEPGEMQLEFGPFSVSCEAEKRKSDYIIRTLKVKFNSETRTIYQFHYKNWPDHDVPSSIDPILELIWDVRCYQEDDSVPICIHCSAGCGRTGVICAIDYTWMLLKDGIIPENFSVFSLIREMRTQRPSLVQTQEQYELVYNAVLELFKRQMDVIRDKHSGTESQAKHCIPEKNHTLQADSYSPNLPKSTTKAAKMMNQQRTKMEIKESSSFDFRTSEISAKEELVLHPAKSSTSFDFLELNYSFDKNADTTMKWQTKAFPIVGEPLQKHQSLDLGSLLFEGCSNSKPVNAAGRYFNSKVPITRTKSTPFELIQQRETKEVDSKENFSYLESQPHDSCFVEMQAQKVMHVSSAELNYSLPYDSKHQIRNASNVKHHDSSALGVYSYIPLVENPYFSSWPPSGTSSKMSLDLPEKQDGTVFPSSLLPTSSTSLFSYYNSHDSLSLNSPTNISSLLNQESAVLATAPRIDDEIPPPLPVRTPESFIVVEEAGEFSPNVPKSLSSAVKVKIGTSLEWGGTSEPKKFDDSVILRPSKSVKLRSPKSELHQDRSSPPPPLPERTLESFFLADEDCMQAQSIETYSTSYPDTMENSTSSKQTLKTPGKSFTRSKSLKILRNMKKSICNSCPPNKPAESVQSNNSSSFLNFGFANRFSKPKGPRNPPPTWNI

[31] = target: T4, Low molecular weight phosphotyrosine protein phosphatase (Homo sapiens, UniProt P24666); format: functional; settings: read-out: IC50_Mean
T4 sequence (P24666 whole entry): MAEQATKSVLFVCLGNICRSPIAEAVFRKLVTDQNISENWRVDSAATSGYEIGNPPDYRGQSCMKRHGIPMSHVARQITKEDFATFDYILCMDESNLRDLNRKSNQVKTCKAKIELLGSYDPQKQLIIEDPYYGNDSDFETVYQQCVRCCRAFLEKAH

[32] = target: T5, Carboxy-terminal domain RNA polymerase II polypeptide A small phosphatase 1 (Homo sapiens, UniProt Q9GZU7); assay: CTDSP1 inhibitors, concentration-response, biochemical, absorbance readout, ultra-high-throughput screen actives (AID 540297); format: functional
T5 sequence (Q9GZU7 whole entry): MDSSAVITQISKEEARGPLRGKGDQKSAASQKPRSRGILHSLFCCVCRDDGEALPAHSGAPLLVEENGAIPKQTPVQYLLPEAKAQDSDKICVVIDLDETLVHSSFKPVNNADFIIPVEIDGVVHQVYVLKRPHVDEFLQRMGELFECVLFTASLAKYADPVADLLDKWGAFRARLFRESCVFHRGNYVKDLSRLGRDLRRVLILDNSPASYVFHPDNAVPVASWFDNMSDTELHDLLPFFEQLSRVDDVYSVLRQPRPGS

[33] = target: T4, Low molecular weight phosphotyrosine protein phosphatase; format: functional; settings: read-out: IC50_Mean; remark: listed apart in the source

T2 sequence (P08183 whole entry): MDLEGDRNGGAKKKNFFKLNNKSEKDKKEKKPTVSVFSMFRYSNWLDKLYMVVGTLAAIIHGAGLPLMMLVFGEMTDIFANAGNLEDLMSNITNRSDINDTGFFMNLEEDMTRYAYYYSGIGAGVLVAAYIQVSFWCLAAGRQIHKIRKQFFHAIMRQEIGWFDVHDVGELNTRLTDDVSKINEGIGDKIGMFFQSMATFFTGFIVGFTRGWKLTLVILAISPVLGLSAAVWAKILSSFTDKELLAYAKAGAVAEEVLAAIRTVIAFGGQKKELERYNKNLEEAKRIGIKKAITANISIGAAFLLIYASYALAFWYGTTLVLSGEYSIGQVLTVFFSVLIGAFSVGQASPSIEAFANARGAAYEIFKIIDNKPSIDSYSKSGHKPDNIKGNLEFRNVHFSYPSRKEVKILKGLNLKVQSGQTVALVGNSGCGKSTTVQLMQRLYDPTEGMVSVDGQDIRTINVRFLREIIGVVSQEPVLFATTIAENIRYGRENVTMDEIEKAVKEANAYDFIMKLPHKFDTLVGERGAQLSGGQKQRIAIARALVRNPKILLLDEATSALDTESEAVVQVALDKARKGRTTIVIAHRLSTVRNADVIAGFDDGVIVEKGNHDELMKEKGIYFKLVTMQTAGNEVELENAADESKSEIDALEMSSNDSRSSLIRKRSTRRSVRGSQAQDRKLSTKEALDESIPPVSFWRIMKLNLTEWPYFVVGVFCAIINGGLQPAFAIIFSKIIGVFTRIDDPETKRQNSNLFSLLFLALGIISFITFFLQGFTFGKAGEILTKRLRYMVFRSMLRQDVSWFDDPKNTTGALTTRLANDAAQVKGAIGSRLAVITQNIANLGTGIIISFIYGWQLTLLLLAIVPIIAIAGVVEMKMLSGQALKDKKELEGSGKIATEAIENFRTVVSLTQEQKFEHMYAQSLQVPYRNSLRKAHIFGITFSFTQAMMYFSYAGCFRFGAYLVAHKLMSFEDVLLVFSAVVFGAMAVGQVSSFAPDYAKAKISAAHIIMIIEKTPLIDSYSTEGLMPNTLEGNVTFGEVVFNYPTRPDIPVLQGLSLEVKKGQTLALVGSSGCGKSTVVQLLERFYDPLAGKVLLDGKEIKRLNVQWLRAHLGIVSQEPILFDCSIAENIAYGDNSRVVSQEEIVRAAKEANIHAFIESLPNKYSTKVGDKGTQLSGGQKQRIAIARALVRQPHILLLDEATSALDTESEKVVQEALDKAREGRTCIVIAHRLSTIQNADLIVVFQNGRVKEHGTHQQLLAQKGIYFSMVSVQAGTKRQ
Steroidogenic factor 1, sequence (Q13285 whole entry): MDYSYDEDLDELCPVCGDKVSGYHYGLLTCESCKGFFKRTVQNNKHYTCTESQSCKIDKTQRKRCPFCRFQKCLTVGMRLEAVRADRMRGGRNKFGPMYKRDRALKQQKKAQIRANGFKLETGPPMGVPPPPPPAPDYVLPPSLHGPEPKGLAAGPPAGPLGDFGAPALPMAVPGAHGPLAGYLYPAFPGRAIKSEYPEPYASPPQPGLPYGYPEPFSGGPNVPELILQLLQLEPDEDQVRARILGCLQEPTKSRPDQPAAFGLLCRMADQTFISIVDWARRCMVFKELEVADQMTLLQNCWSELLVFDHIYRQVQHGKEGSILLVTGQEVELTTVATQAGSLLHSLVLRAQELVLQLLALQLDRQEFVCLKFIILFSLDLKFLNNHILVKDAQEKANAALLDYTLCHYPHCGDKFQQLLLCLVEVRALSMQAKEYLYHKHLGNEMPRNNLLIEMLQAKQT
Protein Wnt-3a, sequence (P27467 whole entry): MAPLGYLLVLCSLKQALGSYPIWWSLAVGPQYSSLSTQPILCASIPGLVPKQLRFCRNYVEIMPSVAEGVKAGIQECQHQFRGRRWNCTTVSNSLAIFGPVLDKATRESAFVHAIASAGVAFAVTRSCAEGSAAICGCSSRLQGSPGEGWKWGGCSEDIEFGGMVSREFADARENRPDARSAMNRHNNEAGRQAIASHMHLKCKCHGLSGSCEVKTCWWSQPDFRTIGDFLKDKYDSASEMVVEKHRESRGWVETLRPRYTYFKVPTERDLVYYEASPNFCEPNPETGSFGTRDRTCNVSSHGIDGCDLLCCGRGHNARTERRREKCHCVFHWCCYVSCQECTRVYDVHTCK
Disintegrin and metalloproteinase domain-containing protein 17, sequence (P78536 whole entry, the tested form may be a part): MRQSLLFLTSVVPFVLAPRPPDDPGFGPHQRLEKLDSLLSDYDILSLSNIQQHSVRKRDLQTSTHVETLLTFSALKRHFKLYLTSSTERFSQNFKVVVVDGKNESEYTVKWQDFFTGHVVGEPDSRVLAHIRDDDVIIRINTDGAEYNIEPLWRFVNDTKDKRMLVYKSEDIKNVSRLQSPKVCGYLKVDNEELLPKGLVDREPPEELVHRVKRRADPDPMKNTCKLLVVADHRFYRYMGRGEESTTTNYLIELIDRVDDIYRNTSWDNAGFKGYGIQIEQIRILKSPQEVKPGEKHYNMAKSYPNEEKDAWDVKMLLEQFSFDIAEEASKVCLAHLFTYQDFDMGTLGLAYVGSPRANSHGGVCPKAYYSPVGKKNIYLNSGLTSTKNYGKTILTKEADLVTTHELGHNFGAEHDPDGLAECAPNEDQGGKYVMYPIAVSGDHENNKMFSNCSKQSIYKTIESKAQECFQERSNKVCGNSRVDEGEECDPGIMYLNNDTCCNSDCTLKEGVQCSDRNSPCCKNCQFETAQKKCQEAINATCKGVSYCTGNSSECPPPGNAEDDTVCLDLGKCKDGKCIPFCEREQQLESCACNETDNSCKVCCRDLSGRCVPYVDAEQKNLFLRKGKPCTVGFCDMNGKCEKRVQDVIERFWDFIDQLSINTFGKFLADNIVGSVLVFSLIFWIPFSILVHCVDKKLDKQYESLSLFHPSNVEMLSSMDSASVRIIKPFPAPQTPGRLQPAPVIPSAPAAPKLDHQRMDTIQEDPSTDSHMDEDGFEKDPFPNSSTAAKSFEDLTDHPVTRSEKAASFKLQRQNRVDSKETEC
ADP-ribosylation factor GTPase-activating protein 1, sequence (Q62848 whole entry): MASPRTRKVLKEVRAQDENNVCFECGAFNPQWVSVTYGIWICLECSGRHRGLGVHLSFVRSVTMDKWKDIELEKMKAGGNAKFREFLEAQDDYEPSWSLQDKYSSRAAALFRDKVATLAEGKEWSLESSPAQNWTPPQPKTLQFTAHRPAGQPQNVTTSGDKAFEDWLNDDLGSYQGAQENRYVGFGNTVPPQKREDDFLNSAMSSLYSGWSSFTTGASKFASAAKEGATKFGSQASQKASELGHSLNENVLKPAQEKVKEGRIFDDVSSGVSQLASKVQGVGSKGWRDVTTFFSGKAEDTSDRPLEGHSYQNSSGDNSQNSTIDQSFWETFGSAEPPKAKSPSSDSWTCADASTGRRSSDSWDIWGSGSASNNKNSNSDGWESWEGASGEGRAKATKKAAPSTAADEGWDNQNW
SWI/SNF-related matrix-associated actin-dependent regulator of chromatin subfamily A member 2, sequence (P51531 whole entry): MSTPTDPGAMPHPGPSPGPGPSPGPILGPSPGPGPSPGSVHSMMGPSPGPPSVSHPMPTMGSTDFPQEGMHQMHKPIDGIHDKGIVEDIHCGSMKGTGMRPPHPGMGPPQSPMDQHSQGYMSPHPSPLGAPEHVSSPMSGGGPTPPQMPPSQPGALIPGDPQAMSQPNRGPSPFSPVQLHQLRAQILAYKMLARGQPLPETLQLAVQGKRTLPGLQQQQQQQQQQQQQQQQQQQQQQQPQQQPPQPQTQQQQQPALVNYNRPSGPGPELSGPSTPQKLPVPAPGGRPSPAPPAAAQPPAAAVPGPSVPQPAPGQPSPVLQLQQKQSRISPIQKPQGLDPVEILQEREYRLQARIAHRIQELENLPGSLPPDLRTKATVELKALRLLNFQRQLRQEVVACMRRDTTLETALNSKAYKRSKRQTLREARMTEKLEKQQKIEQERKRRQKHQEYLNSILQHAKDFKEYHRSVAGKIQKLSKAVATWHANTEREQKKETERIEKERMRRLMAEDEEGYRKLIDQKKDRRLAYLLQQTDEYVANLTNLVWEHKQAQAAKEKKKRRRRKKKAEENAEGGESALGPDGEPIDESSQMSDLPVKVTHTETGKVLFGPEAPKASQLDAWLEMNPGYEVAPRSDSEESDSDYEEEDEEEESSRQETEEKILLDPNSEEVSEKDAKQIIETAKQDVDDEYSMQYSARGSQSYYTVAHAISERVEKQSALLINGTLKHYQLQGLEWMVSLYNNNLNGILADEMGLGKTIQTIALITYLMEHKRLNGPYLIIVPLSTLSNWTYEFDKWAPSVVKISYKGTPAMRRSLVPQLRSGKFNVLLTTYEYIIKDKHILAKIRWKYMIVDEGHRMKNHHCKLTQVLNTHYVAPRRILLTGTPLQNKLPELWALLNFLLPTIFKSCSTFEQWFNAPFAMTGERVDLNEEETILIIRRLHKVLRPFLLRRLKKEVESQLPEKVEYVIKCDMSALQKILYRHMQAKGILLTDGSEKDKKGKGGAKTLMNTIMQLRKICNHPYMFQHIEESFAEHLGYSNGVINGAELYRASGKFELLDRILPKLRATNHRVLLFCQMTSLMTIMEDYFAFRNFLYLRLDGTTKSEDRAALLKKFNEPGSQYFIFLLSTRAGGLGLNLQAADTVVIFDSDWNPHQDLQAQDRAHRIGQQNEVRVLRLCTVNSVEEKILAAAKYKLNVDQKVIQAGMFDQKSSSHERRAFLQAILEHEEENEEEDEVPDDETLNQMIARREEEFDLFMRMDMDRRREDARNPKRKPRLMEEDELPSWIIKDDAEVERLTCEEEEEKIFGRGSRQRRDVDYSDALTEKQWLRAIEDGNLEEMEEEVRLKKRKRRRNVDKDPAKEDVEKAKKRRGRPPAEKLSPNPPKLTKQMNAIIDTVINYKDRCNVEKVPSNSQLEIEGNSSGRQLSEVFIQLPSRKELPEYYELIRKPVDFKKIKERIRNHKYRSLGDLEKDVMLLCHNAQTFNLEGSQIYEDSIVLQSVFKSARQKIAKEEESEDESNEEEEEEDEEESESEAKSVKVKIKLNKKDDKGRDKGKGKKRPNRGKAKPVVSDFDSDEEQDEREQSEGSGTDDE

## Cc1cc(C(=O)NN=C(S)Nc2cccc(C(F)(F)F)c2)nn1C
[1]
  IC50: > 122 µM (inactive)

## Cc1ccc2nc3c(O)n(CC(=O)N4CC(C)CC(C)C4)ncc-3c2c1 (stereo not drawn)
[2]
  IC50: 133 µM (inactive)

## CN(c1cccc(NC(=O)c2ccc(C(C)(C)C)cc2)c1)S(C)(=O)=O
A549
  AC50: 23.1 µM (active)
BHK-21
  AC50: 22.6 µM (active)

## O=C1/C(=C/c2ccco2)Cc2ccccc21
[3]
  EC50: > 91.1 µM (inactive)
[4]
  EC50: > 91.1 µM (inactive)

## O=C(CSc1n[nH]c(-c2ccccc2)n1)Nc1ccc(F)cc1F
Steroidogenic factor 1
  IC50: 3.68 µM (active)
[5]
  IC50: 35.9 µM (inactive)
[6]
  IC50: 3.99 µM (active)

## Cc1cccc(NS(=O)(=O)c2ccc(-c3cnc(C4CC4)o3)cc2)c1C
BJ [7]
  EC50: 2.67 µM (active)
[8]
  EC50: 2.74 µM (inconclusive)
BJ [9]
  EC50: 2.51 µM (active)
[10]
  IC50: 67.5 µM (inactive)
BJ [11]
  EC50: 2.88 µM (inconclusive)
[12]
  IC50: 6.35 µM (active)
BJ [13]
  EC50: < 0.104 µM (active)

## Cc1c(C(=O)OCC(=O)NCC2CCCO2)oc2ccccc12 (stereo not drawn)
[14]
  IC50: > 80 µM (inactive)
[15]
  IC50: 11.9 µM (active)

## O=C(c1ccco1)N1CCN(c2cc(Cc3ccccc3)nc3cc(-c4cccc(Cl)c4)nn23)CC1
[16]
  EC50: 4.21 µM (active)
[17]
  EC50: 0.8 µM (active)

## C[C@@H]1CN([C@H](C)CO)C(=O)c2cc(-c3cccc(C#N)c3)cnc2O[C@H]1CN(C)C(=O)C1CCC1
[18]
  AC50: 53.7 µM (active)

## CC(CNC(=O)[C@@H](Cc1ccccc1)NC(=O)[C@H]1O[C@@H](n2cnc3c(=O)[nH]c(N)nc32)[C@H](O)[C@@H]1O)c1ccccc1 (stereo partly drawn)
Cells [19]
  EC50: > 29.9 µM (inactive)
Cells [20]
  IC50: > 29.9 µM (inactive)

## C[C@@H]1CN([C@H](C)CO)C(=O)c2cc(NS(=O)(=O)c3ccc(Cl)cc3)ccc2O[C@@H](C)CCCCO[C@H]1CN(C)S(=O)(=O)c1ccc(Cl)cc1
[21]
  AC50: 32.9 µM (active)
[22]
  AC50: 15.9 µM (active)
Paired box protein Pax-8
  AC50: 4.76 µM (active)
[23]
  AC50: 54.6 µM (active)
[24]
  AC50: 25.1 µM (active)

## C[C@@H]1CN([C@@H](C)CO)C(=O)c2c(c3ccccc3n2C)-c2ccccc2CO[C@@H]1CN(C)C(=O)Nc1ccc(F)cc1
[25]
  AbsAC35: 304.17 µM

## O=C(Nc1cc(NCC2CCCO2)ncn1)c1ccccc1 (stereo not drawn)
Protein Wnt-3a
  IC50: > 21.8 µM (inactive)

## COc1ccc(NC(=O)N(C)C[C@@H]2OCCCC[C@H](C)Oc3ccc(NC(=O)C4CCCCC4)cc3C(=O)N([C@H](C)CO)C[C@@H]2C)cc1
[26]
  AC50: 2.67 µM (active)
[27]
  AC50: 27.8 µM (active)

## CNC(=S)N/N=C/c1cn(CCOc2ccc(OC)cc2)c2ccccc12
[28]
  IC50: > 69.5 µM (inactive)
[29]
  IC50: > 69.5 µM (inactive)

## O=C(N/N=C/c1cccc(Br)c1)c1ccc(Br)cc1
[30]
  IC50: 41.4 µM (inactive)
[31]
  IC50: 39.7 µM (inactive)
[32]
  IC50: 4.51 µM (active)
[33]
  IC50: 12.2 µM (active)
